The values below come from patent publication EP2177533A1, “Multiple N-methylated cyclic hexapeptides for treatment of neurogenic inflammation” (TU München, priority 2008, dated 2010).

Marks after values point to notes of the source that are not given here. Bounds are passed on as bounds.

The conditions of data set [1]: cited from earlier work.
For data set [2] the following is noted: cited from earlier work. This is another data set of the same source.
In data set [3] the test system is peripheral terminals of sensory nerves of the isolated rat trachea. Kind of data set: Electrical field stimulation-induced CGRP release from sensory nerve terminals of the isolated rat trachea (RIA). As to conditions: 500 nM; for EFS-evoked increase in the outflow of CGRP: stimulated and post-stimulated fractions vs control; for CGRP release in % compared to the prestimulated fraction: total CGRP release in stimulated and poststimulated fractions together vs basal outflow, n=5, mean with spread. On the procedure:
(§1) • Figure 1 provides a graphical representation of the effect of some compounds of the present invention on electrical field stimulation (EFS; 40 V, 0.1 ms, 10 Hz for 120 s; 1200 pulses)-induced calcitonin gene-related (CGRP) release from sensory fibres of the isolated rat tracheae. Each column represents the mean±s.e.m. CGRP concentration measured in the incubation medium of the prestimulated, stimulated and poststimulated 8-minute fractions of n = 5 experiments (5 x 2 tracheae/group). Analogs were added to the incubation medium (500 nM) at the beginning of the second and third fractions. *P<0.05, **P<0.01, vs. respective fraction of the control experiment (Mann-Whitney U-test). • Figure 2 provides a graphical representation of the effect of small peptide somatostatin analogs on 1% mustard oil-induced acute neurogenic plasma protein extravasation in the dorsal skin of the rat paw. Each column represents the mean±s.e.m. Evans blue accumulation per g wet skin of n = 6-10 experiments. Analogs were injected i.p. (100 µg/kg) 10 min before the induction of the inflammation. *P<0.05 vs. solvent-treated control experiment (Mann-Whitney U-test).
The activities of the above described synthetic somatostatin analogs were determined by means of an in vitro pharmacological assay on the release of the sensory neuropeptide CGRP from the peripheral terminals of sensory nerves of the isolated rat trachea. This experimental model was established more than 10 years ago (Helyes et al. (1997) Br. J. Pharmacol. 121, 613-615; Szolcsányi et al. (1998) Br. J. Pharmacol. 123, 936-942; Szolcsányi et al. (1998) Br. J. Pharmacol. 125, 916-922; Helyes et al. (2004) Arthr. Rheum., 50, 1677-1685; Bölcskei et al. (2005) Pain 117, 368-376; Helyes et al. (2007) Am. J. Physiol. Lung Cell. Mol. Physiol. 292, L1173-81; Nemeth et al. (1998) Eur. J. Pharmacol, 347, 101-104.) and it represents a reliable and sensitive technique for the investigation of drug effects at the level of peripheral nerve endings. Electrical field stimulation parameters are used to induce CGRP release that is selective for capsaicin-sensitive afferents. Since CGRP is an important mediator of neurogenic inflammation, the effectiveness of compounds in decreasing its electrically-evoked release in vitro may be seen as an indicator for effectiveness to inhibit neurogenic inflammatory reactions in vivo.
Experiments were performed on male Wistar rats bred and kept in the Laboratory Animal Centre of the University of Pécs under standard pathogen free conditions at 24-25 °C and provided with standard rat chow and water ad libitum. The method has been described in detail elsewhere (Helyes et al. (1997) Br. J. Pharmacol. 121, 613-615; Nemeth et al. (1998) Eur. J. Pharmacol. 347, 101-104.). In brief, rats were exsanguinated in deep anesthesia (sodium thiopental, 50 mg/kg i.p.), then the whole trachea was removed and cleaned of fat and adhering connective tissues. Tracheae from two rats were placed into the same organ bath (1.8 ml) to achieve sufficient amount of peptide release and perfused (1 ml/min) with pH- (7.2) controlled oxygenized Krebs solution for 60 min (equilibration period) at 37 °C temperature. After discontinuation of the flow, the solution was changed three times for eight minutes to produce prestimulated, stimulated, poststimulated fractions. In the second 8-min period electrical field stimulation (EFS; 40 V, 0.1 ms, 10 Hz for 120 s; 1200 pulses) was performed to elicit neurotransmitter release. Concentration of CGRP was determined from 200 µL samples of the incubation medium by a selective and specific radioimmunoassay (RIA) technique as described previously in detail (Nemeth et al., 1996; Helyes et al., 1997; Nemeth et al., 1998; Nemeth et al., 1999). Peptide outflow was expressed as the released amount per wet tissue weight. Detection limit of the assay was 0.2 fmol/tube. […]

In data set [4] the test system is 1% mustard oil-induced neurogenic plasma protein extravasation in the rat paw skin. Type of data set: in vivo. As to conditions: 100 µg/kg i.p., 10 min before induction of inflammation; rat hindpaw dorsal skin. As to the method:
as §1, with “Analogs were injected i.p. (100 µg/kg) 10 min before the induction of the inflammation. *P<0.05 vs. solvent-treated control experiment (Mann-Whitney U-test).” left out
To confirm the findings of this in vitro study, a further in vivo activity test was performed: Compounds of the invention were examined on 1% mustard oil-induced neurogenic plasma protein extravasation in the rat paw skin.
Both hindlegs of the rats were acutely denervated (the sciatic and the saphenous nerves were cut 30 min before the induction of inflammation) under sodium pentobarbitone (Nembutal, 40 mg/kg i.p.) anaesthesia to avoid central reflexes. Acute neurogenic inflammation in the dorsal skin of the hindpaws was evoked by topical application of 1 % mustard oil dissolved in paraffin oil. Extravasation of plasma albumin was measured by the Evans blue leakage method. Evans blue (50 mg/kg) was injected i.v. and neurogenic inflammation was induced 10 min later. Rats were killed by exsanguination 20 min after mustard oil application. […] The amount of the accumulated Evans blue, which quantitatively correlates with the intensity of plasma extravasation, was expressed as µg dye/g wet tissue (Helyes et al., 1997; Helyes et al., 2001). […]

The conditions of data set [5]: cited from earlier work. This is another data set of the same source.

Take `CC(C)[C@@H]1NC(=O)[C@H](CCCCN)NC(=O)[C@@H](Cc2c[nH]c3ccccc23)NC(=O)[C@H](Cc2ccc(O)cc2)NC(=O)[C@H](C)N(C)C(=O)[C@H](Cc2ccccc2)NC1=O` [MK-678-0, c(-MeAYwKVF-)]: in data set [1], the “bioavailability after oral administration” value is listed as 1-3%. For the same molecule, the “stability in the blood and in the gastrointestinal tract” value in data set [2] is “quite stable”.

As to `CC(C)[C@@H]1NC(=O)[C@H](CCCCN)N(C)C(=O)[C@@H](Cc2c[nH]c3ccccc23)N(C)C(=O)[C@H](Cc2ccc(O)cc2)NC(=O)[C@H](C)N(C)C(=O)[C@H](Cc2ccccc2)NC1=O` [MK-678-2, cyclo(-MeAla-Tyr-D-MeTrp-MeLys-Val-Phe-)], in data set [3], the “EFS-evoked increase in the outflow of CGRP” value (shortened to “EFS-evoked increase”) is on record as “significantly inhibited” and the “CGRP release in % compared to the prestimulated fraction” value is 153,12 ± 29,72* %. Moreover, in data set [4], the “µg Evans blue/g wet tissue (mean±s.e.m.)” value was 119.92±32.7 µg Evans blue/g wet tissue.

As for `CC(C)[C@@H]1NC(=O)[C@H](CCCCN)N(C)C(=O)[C@@H](Cc2c[nH]c3ccccc23)NC(=O)[C@H](Cc2ccc(O)cc2)NC(=O)[C@H](C)N(C)C(=O)[C@H](Cc2ccccc2)NC1=O` [MK-678-3, cyclo(-MeAla-Tyr-D-Trp-MeLys-Val-Phe-)], in data set [3], the “EFS-evoked increase” value is reported as “significantly inhibited” and the “CGRP release in % compared to the prestimulated fraction” value is 181,57 ± 54,17* %. In data set [4], the “µg Evans blue/g wet tissue (mean±s.e.m.)” value is given as 127.13±23.0 µg Evans blue/g wet tissue.

On to `CC(C)[C@@H]1NC(=O)[C@H](CCCCN)N(C)C(=O)[C@@H](Cc2c[nH]c3ccccc23)N(C)C(=O)[C@H](Cc2ccc(O)cc2)NC(=O)[C@H](C)N(C)C(=O)[C@H](Cc2ccccc2)N(C)C1=O` [MK-678-1, cyclo(-MeAla-Tyr-D-MeTrp-MeLys-Val-MePhe-)], for which the “CGRP outflow in the poststimulated fraction” value in data set [3] (poststimulated fraction) is reported as “completely abolished”. Besides, in data set [3], the “EFS-evoked increase” value is listed as “significantly inhibited” and the “CGRP release in % compared to the prestimulated fraction” value is on record as 99,58 ± 39,89** %. Further, the “inhibitory action on CGRP outflow in the stimulated period” value in data set [3] (stimulated fraction, EFS 1200 pulses) is “about 70%”. Besides, the “µg Evans blue/g wet tissue (mean±s.e.m.)” value in data set [4] is given as 90.06±10.4* µg Evans blue/g wet tissue.

For the molecule Somatostatin, the “half life in serum” value in data set [5] is below 3 min.
